pEC50, pIC50: −log10 of the molar value.

What all share (type): cell-based
For test [1], the system named is VDR (VDRE-luciferase-reporter construct). In words: VDRE Reporter Gene Assay in HEK cells with stable expression of VDR. The note with it: Homo sapiens, HEK293, 24 hours. On the procedure:
Compound activity was also assessed by looking at a Vitamin D Response Element (VDRE) reporter gene assay, Human Embryonic Kidney cells (HEK cells) with a stable expression of VDR were cultured in 96-well plates at ˜4×10^5 cells/mL (100 μL/well) in DMEM medium containing 10% fetal calf serum. Cells were transfected with 0.2 μg per well of a VDRE-luciferase-reporter construct (from Y. Li, University of Chicago) and then treated with test agents at indicated concentrations for 24 hours. The luciferase activity was then measured following the manufacturer's instructions (Promega, Madison, Wis.).

Test [2] deals with Human promyelocytic leukemia (HL60) cells. Nature of the test: HL-60 Differentiation. As to conditions: HL-60, 96 h, four days incubation, NBT, absorbance 570 nm. The method, then: Human promyelocytic leukemia (HL60) cells were obtained from the American Type Culture Collection (ATCC Cat. # CCL-240, Manassas, Va.). Cells were maintained in RPMI 1640 medium (commercially available from Invitrogen, Carlsbad, Calif.) containing 10% fetal bovine serum (commercially available from Invitrogen, Carlsbad, Calif.) at 37° C. with 5% CO2. Cells were passaged weekly and were not allowed to become >90% confluent. For the assay, cells were plated at 5×10^5 cells per well in 200 uL media. Test compounds were diluted in media in concentrations between 10^−6-10^−10 M and then added to the appropriate wells. Cells were then incubated for four days at 37° C. in 5% CO2 atmosphere. After incubation, media was aspirated from each well and 75 uL of NBT solution (nitroblue tetrazolinium: 200 ng/mL PMA (phorbol 12-myrystate 13-acetate) and 2 mg/ml NBT (nitroblue tetrazolium) in distilled H2O) was added to each well followed by further incubation for 2 hours at 37° C. Following incubation, 150 uL lysis buffer (225 mL dimethylformamide, 67.5 g SDS). PMA stock solution (2 mg/ml in ethanol) was added to each well and the plate was allowed to sit at room temperature for 4 hours. HL-60 cell differentiation was assayed, Effect of each compound on cell growth was examined as a function of time; absorbance in each well was measured at 570 nm.

The subject of test [3] is Renin mRNA in As4.1 cells. In words: Renin mRNA in As4.1 cells transfected with pcDNA-hVDR (real-time RT-PCR). The method, then: As4.1 cells (ATCC, Manassas, Va.) were cultured in Dulbecco's Modified Eagle Medium DMEM (commercially available from Invitrogen, Carlsbad, Calif.) with 10% fetal bovine serum at 37° C. in a humidified 5% CO2-95% air atmosphere. C3;ells were transfected with the pcDNA-hVDR plasmid (provided by Yan Chun Li, University of Chicago) by LIPOFECTAMINE™ 2000 (Invitrogen, Carlsbad, Calif.). siRNA was transfected with the pcDNA-hVDR plasmid by LIPOFECTAMINE™ 2000 according to the manufacturer's protocol. Twenty-four hours after transfection, cells were treated with test agents.
Real-time reverse transcription-PCR was performed with a MyiQ Real-time PCR Detection System (commercially available from BioRad, Hercules, Calif.). […] TaqMan™ probes that were 5′ labeled with the reporter 6-carboxyfluorescein (FAM) and 3′ labeled with the quencher tetramethylrhodamine (TAMRA) were used and the primer and probe sets were obtained from Applied Biosystems (Foster City, Calif.). Temperature conditions consisted of a step of 5 minutes at 95° C., followed by 45 cycles of 60° C. for 1 minute and 95° C. for 15 seconds. Data was collected during each extension phase of the PCR reaction and analyzed with the accompanying software package (BioRad, Hercules, Calif.). Threshold cycles were determined for each gene.
Background: In qPCR the cycle at which signal appears reflects the starting amount.

For test [4], the system named is PAI-1 mRNA in human coronary artery smooth muscle cells (CASMC). Nature of the test: PAI-1 mRNA in CASMC. As to conditions: for pIC50: Homo sapiens. On the procedure: (§1) Primary culture of human coronary artery smooth muscle cells (CASMC) (commercially available from Cambrex, Walkersville, Md.) were grown in smooth muscle growth medium SmGM-2 (commercially available from Lonza Bioscience) containing 5.5 mM glucose, 5% FBS, 50 μg/ml gentamicin, 50 ng/ml amphotericin-B, 5 μg/ml insulin, 2 ng/ml human recombinant fibroblast growth factor (hFGF), and 0.5 ng/ml human recombinant epidermal growth factor (hEGF) at 37° C. in a humidified 5% CO2-95% air atmosphere. Cells were grown to >80% confluence and used within five passages.
(§2) Real-time reverse transcription-PCR was performed with a MyiQ Real-Time PCR Detection System (BioRad, Hercules, Calif.). Each sample has a final volume of 25 μl containing 100 ng of cDNA, […] each of the forward and reverse PCR primers and […] of the TaqMan™ probe for the gene of interest (Applied Biosystems, Foster City, Calif.). Temperature conditions consisted of a step of 5 minutes at 95° C., followed by 40 cycles of 60° C. for 1 minute and 95° C. for 15 seconds. Data was collected during each extension phase of the PCR reaction and analyzed with the software package (BioRad, Hercules, Calif.). Threshold cycles were determined for each gene. […]

Test [5] deals with Thrombomodulin mRNA in human coronary artery smooth muscle cells (CASMC). In words: Thrombomodulin mRNA in CASMC. As to conditions: for pEC50: Homo sapiens. On the procedure:
as §1, §2

The test system of test [6] is Thrombospondin mRNA in human coronary artery smooth muscle cells (CASMC). Nature of the test: Thrombospondin mRNA in CASMC. The note with it: for pIC50: Homo sapiens. On the procedure:
as §1, §2

One may read the pEC50 as the EC50 on a negative log10 scale, so that one unit is a factor of ten. Read a high pEC50 as a small EC50. A word on the pIC50: it is −log10 of the IC50, conventionally taken in molar units. A high value points to a small IC50. For the compound `C=C1[C@H](O)CC(=C/C=C2\CCC[C@]3(C)[C@@H]([C@H](C)COC(=O)C(C)(C)OC(C)=O)CC[C@@H]23)C[C@H]1O` [Example 6, (2S)-2-[(1R,3R,7E,17β)-1,3-dihydroxy-2-methylene-9,10-secoestra-5,7-dien-17-yl]propyl 2-(acetyloxy)-2-methyl propanoate], the negative-log EC50 (pEC50) in test [1] was 8.89; in test [2], 7.92. Also, the pIC50 in test [3] is 7.73; in test [6] it was 8.89. Moreover, the “PAI-1 mRNA in CASMC IC50” value in test [4] is “inactive”. In test [5], the “Thrombomodulin mRNA in CASMC EC50” value was “inactive”.

Regarding `C=C1[C@H](O)CC(=C/C=C2\CCC[C@]3(C)[C@@H]([C@H](C)CC[C@H](C)C(C)C)CC[C@@H]23)C[C@H]1O` [Example 7, (1R,3R,7E)-2-methylene-17-[(1R,4S)-1,4,5-trimethylhexyl]-9,10-secoestra-5,7-diene-1,3-diol], the results for the pEC50 in test [1], in test [2] and in test [5] were 7.91, 7.90 and 9.22, respectively. Moreover, the pIC50 in test [3], in test [4] and in test [6] was 10.00 in each case.

Turning to `C=C1[C@H](O)CC(=C/C=C2\CCC[C@]3(C)[C@@H]([C@H](C)OCCC(C)(C)O)CC[C@@H]23)C[C@H]1O` [Example 8, (1R,3R,7E,17β)-17-[(1S)-1-(3-hydroxy-3-methylbutoxy)ethyl]-2-methylene-9,10-secoestra-5,7-diene-1,3-diol], the pEC50 is greater than 11.00 in test [1], 7.50 in test [2] and 7.41 in test [5]. The figures for the negative logarithm of the IC50 (pIC50) in test [3], in test [4] and in test [6] were 9.52, 10.70 and 10.30, respectively.

On to `CC(C)[C@@H](C)CC[C@@H](C)[C@H]1CC[C@H]2/C(=C/C=C3C[C@@H](O)C[C@H](O)C3)CCC[C@]12C` [Example 9, (1R,3R,7E)-17-[(1R,4S)-1,4,5-trimethylhexyl]-9,10-secoestra-5,7-diene-1,3-diol], for which the pEC50 is less than 5.00 in test [1], 6.36 in test [2] and 10.00 in test [5]. For the same compound, the “Renin mRNA in AS4.1 IC50” value in test [3] was “inactive”. In addition, the pIC50 in test [4] was 10.00; in test [6], 9.52.

As for `C=C1/C(=C\C=C2/CCC[C@]3(C)[C@@H]([C@H](C)C(C[C@@H](C)C(C)(C)OC)OC)CC[C@@H]23)C[C@@H](O)C[C@@H]1O` (stereo partly drawn) [Example 10, (1S,3R,5Z,7E,24R)-22,25-dimethoxy-9,1 0-secoergosta-5,7,10-triene-1,3-diol], the negative logarithm of the EC50 (pEC50) in test [1] was 6.82; in test [2], 6.21; in test [5], 9.70. In addition, the pIC50 in test [3] was 8.41; in test [4], 10.40; in test [6] it was 11.00.

As for `COC(C[C@@H](C)C(C)(C)OC)[C@@H](C)[C@H]1CC[C@H]2/C(=C/C=C3C[C@@H](O)C[C@H](O)C3)CCC[C@]12C` (stereo partly drawn) [Example 11, (1R,3R,7E,17β)-17-[(1S,4R)-2,5-dimethoxy-1,4,5-trimethylhexyl]-9,10-secoestra-5,7-diene-1,3-diol], the pEC50 in test [1] was 6.74; in test [2] it was 6.51; in test [5], 7.55. For the same compound, the results for the pIC50 in test [3], in test [4] and in test [6] were 11.70, 11.00 and 11.00, respectively.

As to `C=C1[C@H](O)CC(=C/C=C2\CCC[C@]3(C)[C@@H]([C@H](C)COc4ccccc4)CC[C@@H]23)C[C@H]1O` [Example 12, (1R,3R,7E,17β)-2-methylene-17-[(1S)-1-methyl-2-phenoxyethyl]-9,10-secoestra-5,7-diene-1,3-diol], the values for the pEC50 in test [1], in test [2] and in test [5] were 7.77, 9.70 and 10.00, respectively. The negative-log IC50 (pIC50) in test [3] was 9.70; in test [4], 7.94; in test [6], 10.70.

For `C=C1[C@H](O)C/C(=C/C=C2\CCC[C@]3(C)[C@@H]([C@H](C)CCCC(C)(C)O)CC[C@@H]23)C[C@@H]1F` [Example 13, (1R,3S,5Z,7E,17β)-3-fluoro-17-[(1R)-5-hydroxy-1,5-dimethylhexyl]-2-methylene-9,10-secoestra-5,7-dien-1-ol], the figures for the pEC50 in test [1], in test [2] and in test [5] were 6.56, 7.28 and 7.10, respectively. The figures for the negative-log IC50 (pIC50) in test [3], in test [4] and in test [6] were 9.05, 11.00 and 10.52, respectively.

For `C=C1[C@H](O)CC(=C/C=C2\CCC[C@]3(C)[C@@H]([C@H](C)COC(=O)C(C)(C)O)CC[C@@H]23)C[C@H]1O` [Example 14, (2S)-2-[(1R,3R,7E,17β)-1,3-dihydroxy-2-methylene-9,10-secoestra-5,7-dien-17-yl]propyl 2-hydroxy-2-methylpropanoate], the pEC50 in test [1] was 9.22; in test [2] it was 8.05; in test [5], 8.29. In addition, the pIC50 in test [3] was 10.52; in test [4], 10.40; in test [6], 10.70.

As for `C[C@H](CC[C@@H](C)C(C)(C)O)[C@H]1CC[C@H]2/C(=C/C=C3C[C@@H](O)C[C@H](O)C3)CCC[C@]12C` [Example 15, (1R,3R,7E,17β)-17-[(1R,4R)-5-hydroxy-1,4,5-trimethylhexyl]-9,10-secoestra-5,7-diene-1,3-diol], the negative logarithm of the EC50 (pEC50) in test [1] is 9.40; in test [2], 8.92; in test [5], 7.97. Further, the pIC50 in test [3] is 10.40; in test [4], 11.00. Moreover, in test [6], the “Thrombospondin mRNA in CASMC IC50” value was “inactive”.

Regarding `C=C1[C@H](CO)C/C(=C\C=C2/CCC[C@]3(C)[C@@H]([C@H](C)CCCC(C)(C)O)CC[C@@H]23)C[C@H]1O` [Example 16, (1R,3R,5E,7E,17β)-17-[(1R)-5-hydroxy-1,5-dimethylhexyl]-3-(hydroxymethyl)-2-methylene-9,10-secoestra-5,7-dien-1-ol], the pEC50 in test [1] was 7.14; in test [2], 7.37. Further, the pIC50 in test [3] was 7.83.

As to `C=C1[C@H](CO)C/C(=C\C=C2/CCC[C@]3(C)[C@@H]([C@H](C)OCCC(C)(C)O)CC[C@@H]23)C[C@H]1O` [Example 17, (1R,3R,5E,7E,17β)-3-(hydroxymethyl)-17-[(1S)-1-(3-hydroxy-3-methylbutoxy)ethyl]-2-methylene-9,10-secoestra-5,7-dien-1-ol], the pEC50 in test [1] was 6.82; in test [2], 7.03. Also, in test [3], the pIC50 is 8.66.

As for `C=C1[C@H](O)C/C(=C\C=C2/CCC[C@]3(C)[C@@H]([C@H](C)CCCC(C)(C)O)CC[C@@H]23)C[C@@H]1F` [Example 18, (1R,3S,5E,7E,17β)-3-fluoro-17-[(1R)-5-hydroxy-1,5-dimethylhexyl]-2-methylene-9,10-secoestra-5,7-dien-1-ol], the negative-log EC50 (pEC50) in test [1] was 7.95; in test [2], 8.00. In test [3], this compound gave a pIC50 of 10.00.

(Values after patent US8377913B2, “Vitamin D receptor activators and methods of making” (AbbVie Inc., priority 2007, dated 2013).)
